From PubChem BioAssay (NCI)
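Where inhibition never reached the appropriate level, the endpoint shown equals the highest concentration tested. Otherwise, values were interpolated linearly from a five-concentration, 48-hour dose response in 96-well plates. TGI: concentration producing complete growth inhibition.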

What was measured:
Assay in all cases: growth of human tumour cells (NCI), 48 h
OVCAR-8 ovarian = test system: OVCAR-8 ovarian
OVCAR-3 ovarian = test system: OVCAR-3 ovarian
HOP-92 NSCLC = test system: HOP-92 NSCLC
NCI-H460 lung = test system: NCI-H460 lung
MDA-N = test system: MDA-N
SK-MEL-5 melanoma = test system: SK-MEL-5 melanoma
RXF 393 renal = test system: RXF 393 renal
SK-MEL-2 melanoma = test system: SK-MEL-2 melanoma
UO-31 renal = test system: UO-31 renal
HT29 colon = test system: HT29 colon
DU-145 prostate = test system: DU-145 prostate
SF-268 CNS = test system: SF-268 CNS
HCT-116 colon = test system: HCT-116 colon
SN12C renal = test system: SN12C renal
NCI-H226 lung = test system: NCI-H226 lung
K-562 leukemia = test system: K-562 leukemia
EKVX NSCLC = test system: EKVX NSCLC
ACHN renal = test system: ACHN renal
NCI-H522 lung = test system: NCI-H522 lung
MDA-MB-231 breast = test system: MDA-MB-231 breast
BT-549 breast = test system: BT-549 breast
CAKI-1 renal = test system: CAKI-1 renal
MCF7 breast = test system: MCF7 breast
SR leukemia = test system: SR leukemia
SNB-19 CNS = test system: SNB-19 CNS
NCI/ADR-RES ovarian = test system: NCI/ADR-RES ovarian
SW-620 colon = test system: SW-620 colon
SF-295 CNS = test system: SF-295 CNS
TK-10 renal = test system: TK-10 renal
HL-60(TB) leukemia = test system: HL-60(TB) leukemia
M14 melanoma = test system: M14 melanoma
RPMI-8226 leukemia = test system: RPMI-8226 leukemia
HCC-2998 colon = test system: HCC-2998 colon
OVCAR-5 ovarian = test system: OVCAR-5 ovarian
A549 NSCLC = test system: A549 NSCLC
NCI-H23 lung = test system: NCI-H23 lung
MOLT-4 leukemia = test system: MOLT-4 leukemia
KM12 colon = test system: KM12 colon
UACC-62 melanoma = test system: UACC-62 melanoma
UACC-257 melanoma = test system: UACC-257 melanoma
IGROV1 ovarian = test system: IGROV1 ovarian
MDA-MB-435 = test system: MDA-MB-435
SK-MEL-28 melanoma = test system: SK-MEL-28 melanoma
SF-539 CNS = test system: SF-539 CNS
PC-3 prostate = test system: PC-3 prostate
OVCAR-4 ovarian = test system: OVCAR-4 ovarian
A498 renal = test system: A498 renal
HS 578T breast = test system: HS 578T breast
LOX IMVI melanoma = test system: LOX IMVI melanoma
HCT-15 colon = test system: HCT-15 colon
MALME-3M melanoma = test system: MALME-3M melanoma
COLO 205 colon = test system: COLO 205 colon
HOP-62 NSCLC = test system: HOP-62 NSCLC
U251 CNS = test system: U251 CNS
786-0 renal = test system: 786-0 renal
SNB-75 CNS = test system: SNB-75 CNS
SK-OV-3 ovarian = test system: SK-OV-3 ovarian
CCRF-CEM leukemia = test system: CCRF-CEM leukemia

Cc1ccc(-c2c(C#N)c(N)[nH]c(=S)c2C#N)cc1
TGI (OVCAR-8 ovarian): > 100 µM | TGI (OVCAR-3 ovarian): > 100 µM | TGI (HOP-92 NSCLC): > 100 µM | TGI (NCI-H460 lung): > 100 µM | TGI (MDA-N): 41.3 µM | TGI (SK-MEL-5 melanoma): > 100 µM | TGI (RXF 393 renal): 46.5 µM | TGI (SK-MEL-2 melanoma): 72.6 µM | TGI (UO-31 renal): > 100 µM | TGI (HT29 colon): > 100 µM | TGI (DU-145 prostate): > 100 µM | TGI (SF-268 CNS): > 100 µM | TGI (HCT-116 colon): > 100 µM | TGI (SN12C renal): 76 µM | TGI (NCI-H226 lung): > 100 µM | TGI (K-562 leukemia): > 100 µM | TGI (EKVX NSCLC): 66.1 µM | TGI (ACHN renal): > 100 µM | TGI (NCI-H522 lung): 55.6 µM | TGI (MDA-MB-231 breast): > 100 µM | TGI (BT-549 breast): > 100 µM | TGI (CAKI-1 renal): > 100 µM | TGI (MCF7 breast): > 100 µM | TGI (SR leukemia): 66.9 µM | TGI (SNB-19 CNS): > 100 µM | TGI (NCI/ADR-RES ovarian): > 100 µM | TGI (SW-620 colon): > 100 µM | TGI (SF-295 CNS): > 100 µM | TGI (TK-10 renal): > 100 µM | TGI (HL-60(TB) leukemia): 52.8 µM | TGI (M14 melanoma): > 100 µM | TGI (RPMI-8226 leukemia): 65.8 µM | TGI (HCC-2998 colon): > 100 µM | TGI (OVCAR-5 ovarian): > 100 µM | TGI (A549 NSCLC): > 100 µM | TGI (NCI-H23 lung): > 100 µM | TGI (MOLT-4 leukemia): 76.9 µM | TGI (KM12 colon): > 100 µM | TGI (UACC-62 melanoma): > 100 µM | TGI (UACC-257 melanoma): > 100 µM | TGI (IGROV1 ovarian): > 100 µM | TGI (MDA-MB-435): 65.4 µM | TGI (SK-MEL-28 melanoma): > 100 µM | TGI (SF-539 CNS): > 100 µM | TGI (PC-3 prostate): > 100 µM | TGI (OVCAR-4 ovarian): > 100 µM | TGI (A498 renal): > 100 µM | TGI (HS 578T breast): 51.4 µM | TGI (LOX IMVI melanoma): > 100 µM | TGI (HCT-15 colon): > 100 µM | TGI (MALME-3M melanoma): 62.2 µM | TGI (COLO 205 colon): 69 µM | TGI (HOP-62 NSCLC): > 100 µM | TGI (U251 CNS): > 100 µM | TGI (786-0 renal): 77.5 µM

O=c1cc(NNc2ccc3ccccc3c2)[nH]c(=S)[nH]1
TGI (OVCAR-8 ovarian): > 100 µM | TGI (OVCAR-3 ovarian): 34.1 µM | TGI (HOP-92 NSCLC): 62.1 µM | TGI (NCI-H460 lung): > 100 µM | TGI (MDA-N): > 100 µM | TGI (SK-MEL-5 melanoma): > 100 µM | TGI (UO-31 renal): > 100 µM | TGI (HT29 colon): 30 µM | TGI (DU-145 prostate): > 100 µM | TGI (SF-268 CNS): 80 µM | TGI (HCT-116 colon): > 100 µM | TGI (SN12C renal): > 100 µM | TGI (NCI-H226 lung): > 100 µM | TGI (K-562 leukemia): 41.1 µM | TGI (EKVX NSCLC): > 100 µM | TGI (ACHN renal): > 100 µM | TGI (MDA-MB-231 breast): > 100 µM | TGI (BT-549 breast): > 100 µM | TGI (MCF7 breast): 66.6 µM | TGI (SR leukemia): > 100 µM | TGI (SNB-19 CNS): > 100 µM | TGI (NCI/ADR-RES ovarian): > 100 µM | TGI (SW-620 colon): 36.8 µM | TGI (SF-295 CNS): > 100 µM | TGI (TK-10 renal): > 100 µM | TGI (HL-60(TB) leukemia): 69.5 µM | TGI (M14 melanoma): > 100 µM | TGI (RPMI-8226 leukemia): > 100 µM | TGI (HCC-2998 colon): > 100 µM | TGI (OVCAR-5 ovarian): > 100 µM | TGI (A549 NSCLC): > 100 µM | TGI (NCI-H23 lung): > 100 µM | TGI (KM12 colon): 38.3 µM | TGI (UACC-257 melanoma): > 100 µM | TGI (IGROV1 ovarian): > 100 µM | TGI (MDA-MB-435): > 100 µM | TGI (SK-MEL-28 melanoma): > 100 µM | TGI (SF-539 CNS): 82.1 µM | TGI (PC-3 prostate): 46.4 µM | TGI (OVCAR-4 ovarian): > 100 µM | TGI (A498 renal): > 100 µM | TGI (HS 578T breast): > 100 µM | TGI (LOX IMVI melanoma): 26 µM | TGI (HCT-15 colon): 34.1 µM | TGI (MALME-3M melanoma): > 100 µM | TGI (COLO 205 colon): 46 µM | TGI (HOP-62 NSCLC): 98.3 µM | TGI (U251 CNS): > 100 µM | TGI (786-0 renal): 39.6 µM

O=C(/C=C\c1ccc(-c2ccccc2)cc1)c1cccs1
TGI (OVCAR-8 ovarian): > 100 µM | TGI (OVCAR-3 ovarian): > 100 µM | TGI (HOP-92 NSCLC): > 100 µM | TGI (NCI-H460 lung): > 100 µM | TGI (MDA-N): > 100 µM | TGI (SK-MEL-5 melanoma): > 100 µM | TGI (RXF 393 renal): 46.4 µM | TGI (SK-MEL-2 melanoma): > 100 µM | TGI (UO-31 renal): > 100 µM | TGI (HT29 colon): > 50.3 µM | TGI (DU-145 prostate): > 100 µM | TGI (SF-268 CNS): > 75 µM | TGI (HCT-116 colon): > 100 µM | TGI (SN12C renal): > 100 µM | TGI (NCI-H226 lung): > 100 µM | TGI (K-562 leukemia): > 100 µM | TGI (EKVX NSCLC): > 100 µM | TGI (ACHN renal): > 100 µM | TGI (NCI-H522 lung): > 30.4 µM | TGI (MDA-MB-231 breast): > 100 µM | TGI (BT-549 breast): > 100 µM | TGI (CAKI-1 renal): > 100 µM | TGI (MCF7 breast): > 100 µM | TGI (SNB-75 CNS): > 60.4 µM | TGI (SR leukemia): > 100 µM | TGI (SNB-19 CNS): > 100 µM | TGI (NCI/ADR-RES ovarian): > 100 µM | TGI (SW-620 colon): > 100 µM | TGI (SF-295 CNS): > 100 µM | TGI (TK-10 renal): > 100 µM | TGI (HL-60(TB) leukemia): > 31 µM | TGI (M14 melanoma): > 100 µM | TGI (RPMI-8226 leukemia): > 100 µM | TGI (HCC-2998 colon): > 100 µM | TGI (OVCAR-5 ovarian): > 100 µM | TGI (A549 NSCLC): > 100 µM | TGI (NCI-H23 lung): > 100 µM | TGI (MOLT-4 leukemia): > 28.1 µM | TGI (KM12 colon): > 100 µM | TGI (UACC-62 melanoma): > 100 µM | TGI (UACC-257 melanoma): > 100 µM | TGI (SK-OV-3 ovarian): > 100 µM | TGI (IGROV1 ovarian): > 94.3 µM | TGI (MDA-MB-435): > 100 µM | TGI (SK-MEL-28 melanoma): > 100 µM | TGI (SF-539 CNS): > 100 µM | TGI (PC-3 prostate): > 100 µM | TGI (OVCAR-4 ovarian): > 100 µM | TGI (A498 renal): > 27.1 µM | TGI (HS 578T breast): > 81 µM | TGI (LOX IMVI melanoma): > 100 µM | TGI (CCRF-CEM leukemia): 12.5 µM | TGI (HCT-15 colon): > 100 µM | TGI (COLO 205 colon): > 100 µM | TGI (HOP-62 NSCLC): > 100 µM | TGI (U251 CNS): > 100 µM | TGI (786-0 renal): > 100 µM
